The source of these data is patent publication US20230101768A1, “METHOD TO TREAT MANGANESE TOXICITY AND MANGANESE-INDUCED PA[…] HUMANS” (priority 2021, published 2023).

Data set [1] relates to C57BL/6J mice. The settings on record: C57BL/6J mice, open field 6-15 min interval, ~30 mg manganese/kg daily in drinking water, 4 weeks. How it is done:
To assay for the protective effect of roxadustat, animals were exposed to roxadustat or vehicle with or without manganese in drinking water from ˜4 weeks of age. Treatment lasted for 4 weeks from initiation. Roxadustat (Selleckchem) was prepared as a 50 mg/ml stock solution in DMSO, then diluted to 1 mg/ml in sterile phosphate buffered saline (PBS), and delivered by daily i.p. injection at 10 mg/kg. Vehicle was 2% DMSO in PBS. For this experiment, drinking water manganese levels were adjusted to 0.138 mg absolute manganese/ml so that animals received ˜30 mg absolute manganese/kg daily. A higher level of manganese was used because exposure was initiated after weaning, which was necessary because daily i.p. injections for roxadustat delivery were not possible in the pre-weaning period.
Open-field assays for neurobehavior assessment. Open-field analyses were performed as described in a recent publication (51).

Data set [2] concerns prolyl hydroxylase domain 2 (PHD2). The settings on record: HepG2 cells, 250 μM manganese. How it is done:
(§1) Quantitative RT-PCR assays. RNA extraction from HepG2 cells and mouse tissue, reverse transcription to cDNA, and qRT-PCR analyses were performed as described by us previously (47, 50). For analyses of mouse brain samples, a part of the midbrain, including the basal ganglia, was used. Transcript levels were quantified using the ΔΔCT method with 18S (in mice) or TBP (in HepG2 cells) as the internal control, also as described by us previously (47, 50).

The test system of data set [3] is HIF1α. The class given is cell-based, human. The text has this:
(§2) qRT-PCR analyses in HepG2 cells stably infected with scramble shRNAs or shRNAs targeting HIF1α, HIF2α, HIF1β/ARNT or HIF1α+HIF2α. Expression in respective scramble shRNA control cells was normalized to 1. Scramble shRNA sequence 1 was used for the HIF1α shRNA assay (single knockdown). Scramble shRNA sequence 2 was used for the other experiments, including HIF1α+HIF2α double knockdown. N=3-4. Except HIF1β/ARNT shRNAs, p<0.05 by t-test in comparison with respective scramble shRNA. […] N.S.—not significant.
(§3) ShRNA sequences targeting HIF1α, HIF2α, or HIF1β/ARNT (Table 3) were obtained from the MISSION® TRC shRNA library (Sigma) or were previously described (103). Scramble shRNA sequence 1 was from the MISSION® TRC shRNA library while scramble shRNA sequence 2 (Table 3) has been previously reported (104). These sequences were sub-cloned into the lentivirus transfer plasmid pLKO.1 vector (Addgene #8453).
(§4) Lentiviral infections. Stable cells were generated by lentivirus infection essentially as described by us previously (49, 98). Briefly, lentivirus was produced in HEK293T cells by co-transfecting transfer plasmids described above with plasmids coding for a third generation packing system that is routinely used (pRSV-Rev, pRRE, and pCMV-VSVG) (49, 98). Viral supernatants were collected 40-48 h post-transfection. […]
(§5) Quantitative RT-PCR assays.

The subject of data set [4] is HIF2α. It is filed as cell-based, human.
Text: as §2, §3, §4, §5

The subject of data set [5] is FPN. To be noted: HepG2 cells, 250 μM manganese for 4 h; expression without manganese normalized to 1; mean±SE, N=4. The method, then:
(§6) Cells were treated with 0 or 250 μM manganese for 4 h, and gene expression was analyzed by qRT-PCR. For each transcript, expression without manganese treatment was normalized to 1. N=4. Data are mean±SE.
(§7) Cell culture. HepG2 cells were grown in Eagle's modified essential medium (MEM; Corning) with 10% fetal bovine serum (Atlanta Biologicals), 100 IU/ml penicillin (Corning), and 100 μg/ml streptomycin (Corning). 293T cells were maintained in Dulbecco's modified essential medium/F12 (Thermo) supplemented with 10% fetal bovine serum, penicillin (100 IU/ml), and streptomycin (100 μg/ml). Human primary hepatocytes were purchased from XenoTech (catalog #HPCH10+) and cultured according to protocols provided by the supplier.
(§8) manganese and drug treatments in cell culture. Cells were treated with indicated levels of manganese as manganeseCl2.4H2O (Fisher). Vehicle for manganese treatment was water. Prolyl hydroxylase inhibitors roxadustat (Caymen), vadadustat, and molidustat (both APE-Bio); the HIFα inhibitor LW6 (Selleckchem); the proteasomal inhibitor MG132 (Sigma); and the transcription inhibitor actinomycin D (Sigma) were dissolved in DMSO. […] Vehicle treatment for all drugs was DMSO.
as §1

In data set [6] the test system is SLC39A8. To be noted: HepG2 cells, 250 μM manganese for 4 h; expression without manganese normalized to 1; mean±SE, N=4. The method, then:
as §6, §7, §8, §1

Data set [7] deals with DMT1. To be noted: HepG2 cells, 250 μM manganese for 4 h; expression without manganese normalized to 1; mean±SE, N=4. The method, then: as §6, §7, §8, §1
Data set [8] relates to SLC39A14. The settings on record: HepG2 cells, 250 μM manganese for 4 h; expression without manganese normalized to 1; mean±SE, N=4. The method, then: as §6, §7, §8, §1
Data set [9] deals with SPCA1. The settings on record: HepG2 cells, 250 μM manganese for 4 h; expression without manganese normalized to 1; mean±SE, N=4. The method, then: as §6, §7, §8, §1
The subject of data set [10] is SLC30A10. The class given is cell-based, human. To be noted: HepG2 cells. How it is done: as §6, §7, §8, §1
In data set [11] the test system is VEGF. It is filed as cell-based, human. To be noted: HepG2 cells, 250 μM manganese for 4 h; expression without manganese normalized to 1; mean±SE, N=4. The method, then: as §6, §7, §8, §1

As for `O.O.O.O.[Cl][Mn][Cl]` [manganese, manganeseCl2.4H2O], the “Vertical (rearing) movement versus vehicle-treated controls, manganese-only” value in [1] was “reduced”. Moreover, the “PHD2 levels in manganese-treated cells” value in [2] was “elevated”. Moreover, the “HIF1α mRNA levels after manganese” value in data set [3] is reported as “not elevated”. The “HIF2α mRNA levels after manganese” value in data set [4] is reported as “not elevated”. Besides, the “Relative expression after manganese, FPN transcript” value in data set [5] is recorded as 0.77 ± 0.21. Moreover, the “Relative expression after manganese, SLC39A8 transcript” value in data set [6] is listed as 0.87 ± 0.09. For the same compound, the “Relative expression after manganese, DMT1 transcript” value in data set [7] amounted to 0.92 ± 0.03. Also, the “Relative expression after manganese, SLC39A14 transcript” value in data set [8] came out at 0.71 ± 0.02. For the same compound, the “Relative expression after manganese, SPCA1 transcript” value in data set [9] came out at 1.00 ± 0.05. The “Relative expression after manganese, SLC30A10 transcript” value in [10] (250 μM manganese for 4 h, expression without manganese normalized to 1, mean±SE, N=4) stood at 2.40 ± 0.28. Moreover, in data set [10] (250 μM manganese, time course), the “Time at which SLC30A10 levels returned to baseline” value is reported as ≤ 24 h and the “Time to statistically significant increase of SLC30A10” value was ≤ 2 h. Also, the “Lowest manganese level at which SLC30A10 levels were elevated” value in data set [10] (dose response, 4 h) was determined as 62.5 µM. Further, in data set [11], the “Relative expression after manganese, VEGF transcript” value is 2.41 ± 0.29.
